62 compounds from patent publication US8168651B2, “Protein kinase modulators” (Cylene Pharmaceuticals, Inc., priority 2008, dated 2012) can be followed below.

Read-outs that look alike come from different tables or passages of the source.

One test addresses recombinant human CK2 (Homo sapiens (Human), UniProt P68400). Kind of test: CK2 assay (cell-free, 33P-ATP filter plate). The conditions noted are these: 500 nM compound, read-out: CK2: % inh 500 nM. Type of test: biochemical.
Another test addresses recombinant human PIM1 (Homo sapiens (Human), UniProt P11309). Kind of test: PIM-1 kinase activity in cell-free in vitro assay. Type of test: biochemical. The conditions noted are these: for inhibition at 0.5 µM: 500 nM compound, read-out: PIM-1: % inh 500 nM.

Chain of recombinant human CK2 (P68400 whole entry): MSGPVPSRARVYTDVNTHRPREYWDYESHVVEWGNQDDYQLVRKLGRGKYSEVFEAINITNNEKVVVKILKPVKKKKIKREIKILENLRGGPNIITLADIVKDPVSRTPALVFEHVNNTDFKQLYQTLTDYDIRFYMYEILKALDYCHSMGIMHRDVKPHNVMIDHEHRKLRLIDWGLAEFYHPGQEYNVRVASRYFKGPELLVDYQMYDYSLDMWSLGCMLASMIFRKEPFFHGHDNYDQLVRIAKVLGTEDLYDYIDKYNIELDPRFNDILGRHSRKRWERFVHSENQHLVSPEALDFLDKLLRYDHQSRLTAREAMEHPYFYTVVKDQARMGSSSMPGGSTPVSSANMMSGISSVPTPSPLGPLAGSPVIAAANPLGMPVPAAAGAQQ
Chain of recombinant human CK2 (P67870 whole entry partner): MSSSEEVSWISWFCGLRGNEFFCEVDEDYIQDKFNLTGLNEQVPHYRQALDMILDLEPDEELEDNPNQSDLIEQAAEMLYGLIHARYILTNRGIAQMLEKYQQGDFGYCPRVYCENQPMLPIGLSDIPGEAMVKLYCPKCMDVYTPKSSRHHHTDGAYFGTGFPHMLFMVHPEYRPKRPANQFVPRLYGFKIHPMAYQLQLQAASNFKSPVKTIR
Chain of recombinant human PIM1 (P11309 whole entry): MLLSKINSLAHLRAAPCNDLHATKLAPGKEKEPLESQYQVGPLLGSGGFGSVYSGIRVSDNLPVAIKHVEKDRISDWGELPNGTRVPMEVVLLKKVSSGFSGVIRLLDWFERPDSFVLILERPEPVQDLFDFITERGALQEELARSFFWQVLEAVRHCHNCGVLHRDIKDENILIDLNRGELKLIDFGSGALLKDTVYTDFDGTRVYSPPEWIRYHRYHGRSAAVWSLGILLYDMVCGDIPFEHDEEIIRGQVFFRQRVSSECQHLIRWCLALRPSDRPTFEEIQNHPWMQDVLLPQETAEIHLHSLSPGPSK

Consider `O=C(O)c1cccc2c1nc(Nc1ccccc1)c1ccncc12` [drawing 2004], for which the inhibition at 0.5 µM at recombinant human CK2 (cell-free assay) is -13.5%; on recombinant human PIM1 (cell-free assay) it was -77.4%.
Regarding `N#Cc1ccc2c(c1)nc(NCCC(F)(F)F)c1ccsc12`, the inhibition at 0.5 µM on recombinant human CK2 (cell-free assay) was -7.76%; on recombinant human PIM1 (cell-free assay) it was -89.6%.
The corresponding values for `N#Cc1ccc2c(c1)nc(NCCN(CCO)CCO)c1ccsc12` are -9.97% and -17.7%.
On to `N#Cc1ccc2c(c1)nc(Oc1ccc(F)c(F)c1)c1ccsc12`, for which the inhibition at 0.5 µM at recombinant human CK2 (cell-free assay) was -9.99%; at recombinant human PIM1 (cell-free assay) it was 27.8%.
On the same counts, the results for `N#Cc1ccc2c(c1)nc(OCc1ccccc1)c1ccsc12` are 1.85% and -18.4%.
`O=c1[nH]c2cc(F)ccc2c2cnccc12`: the inhibition at 0.5 µM on recombinant human CK2 (cell-free assay) was -1.1%; at recombinant human PIM1 (cell-free assay) it was 15.3%.
On the same counts, the results for `N#Cc1ccc2c(c1)nc(OCC(F)(F)F)c1ccsc12` are -9.05% and -50.2%.
Regarding `COC(=O)c1cccc2c1[nH]c(=O)c1ccncc12`, the inhibition at 0.5 µM on recombinant human CK2 (cell-free assay) was 16.7%; on recombinant human PIM1 (cell-free assay) it was -70.5%.
Regarding `CN(C)CCOc1nc2cc(-c3nnn[nH]3)ccc2c2sccc12`, the figures for the inhibition at 0.5 µM at recombinant human CK2 (cell-free assay) and on recombinant human PIM1 (cell-free assay) were 31.4% and 91.6%, respectively.
A word on the IC50: it is the midpoint of a concentration-inhibition curve. Consider `CN1CCCCC1CNc1nc2cc(C(=O)O)ccc2c2cnccc12` (centres unmarked), for which the inhibition at 0.5 µM at recombinant human CK2 (cell-free assay) was 103%. Besides, on recombinant human PIM1 (cell-free assay), the inhibition at 0.5 µM amounted to 82.5% and the IC50 is 211 nM.
For `N#Cc1ccc2c(c1)nc(Nc1cccc(F)c1)c1ccsc12`, the inhibition at 0.5 µM at recombinant human CK2 (cell-free assay) is 3.06%; on recombinant human PIM1 (cell-free assay), -4.85%.
The corresponding values for `Cc1noc(C)c1NC(=O)NCc1ccc2c(c1)nc(Nc1cccc(F)c1)c1ccsc12` are -4.71% and -11.2%.
Turning to `CN(C)CCNc1nc2cc(C#N)ccc2c2ccsc12`, the figures for the inhibition at 0.5 µM on recombinant human CK2 (cell-free assay) and at recombinant human PIM1 (cell-free assay) were -16.8% and 115%, respectively.
As for `CN1CCC(N(C)c2nc3cc(CNC(=O)Nc4cccc(Cl)c4)ccc3c3sccc23)C1` (centres unmarked), the inhibition at 0.5 µM at recombinant human CK2 (cell-free assay) is -50.4%; on recombinant human PIM1 (cell-free assay), -38.5%.
In the case of `FC(F)(F)COc1nc2cc(-c3nnn[nH]3)ccc2c2sccc12`, the results for the inhibition at 0.5 µM at recombinant human CK2 (cell-free assay) and at recombinant human PIM1 (cell-free assay) were 33% and 32.3%, respectively.
Consider `COC(=O)c1ccc2c(c1)nc(Nc1ccc(F)c(Cl)c1)c1ncncc12`, for which the results for the inhibition at 0.5 µM on recombinant human CK2 (cell-free) and on recombinant human PIM1 (cell-free) were 6.26% and -17.9%, respectively.
Turning to `COC(=O)c1cccc2c1nc(Cl)c1ccncc12` [drawing 2000], the inhibition at 0.5 µM on recombinant human CK2 (cell-free assay) is 10.1%; at recombinant human PIM1 (cell-free assay), -29.2%.
For `O=C(O)c1cccc2c1nc(Nc1cccc(Cl)c1)c1ccncc12` [drawing 2001], the inhibition at 0.5 µM turned out to be 15.5% at recombinant human CK2 (cell-free assay) and 20.2% on recombinant human PIM1 (cell-free assay).
The corresponding values for `Cc1cc2c(cc1OCc1ccccc1)[nH]c(=O)c1ccncc12` are -7.77% and -10.1%.
For `CCN1CCCC1CNc1nc2cc(C#N)ccc2c2ccsc12` (centres unmarked), the inhibition at 0.5 µM on recombinant human CK2 (cell-free assay) was -29.4%; on recombinant human PIM1 (cell-free assay), -9.29%.
On the same counts, the results for `CCN1CCCC1CNc1nc2cc(C#N)ccc2c2cscc12` (centres unmarked) are 20.7% and 6.89%.
In the case of `FC(F)(F)CNc1nc2cc(-c3nnn[nH]3)ccc2c2sccc12`, the inhibition at 0.5 µM on recombinant human CK2 (cell-free assay) is 49%; at recombinant human PIM1 (cell-free assay), 93.2%.
On to `CCN1CCCC1CNc1nc2cc(-c3nnn[nH]3)ccc2c2ccsc12` (centres unmarked), for which the inhibition at 0.5 µM at recombinant human CK2 (cell-free assay) came out at 1.86%; at recombinant human PIM1 (cell-free assay), 80%.
On the same counts, the results for `Cc1cc(NC(=O)NCc2ccc3c(c2)nc(Nc2cccc(F)c2)c2ccsc23)c(C(F)(F)F)o1` are -9.99% and -17.5%.
The corresponding values for `CN1CCC(N(C)c2nc3cc(CN)ccc3c3sccc23)C1` (centres unmarked) are -35.3% and -39.8%.
For `CN1CCCCC1CNc1nc2cc(-c3nnn[nH]3)ccc2c2cscc12` (centres unmarked), the inhibition at 0.5 µM on recombinant human CK2 (cell-free assay) worked out at 57.4%. In addition, at recombinant human PIM1 (cell-free assay), the inhibition at 0.5 µM came to 93.9% and the IC50 came out at 54 nM.
As to `CN1CCCCC1CNc1nc2cc(C#N)ccc2c2cscc12` (centres unmarked), the inhibition at 0.5 µM at recombinant human CK2 (cell-free assay) turned out to be 24.6%; on recombinant human PIM1 (cell-free assay), 46.4%.
As to `Cc1noc(-c2ccc3c(c2)nc(Nc2ccccc2)c2ccncc23)n1`, the inhibition at 0.5 µM on recombinant human CK2 (cell-free) was 27.2%. Also, at recombinant human PIM1 (cell-free), the inhibition at 0.5 µM came to 32.7% and the IC50 is more than 1100 nM.
As to `CN1CCCCC1CNc1nc2cc(C(=O)O)ccc2c2sccc12` (centres unmarked), at recombinant human CK2 (cell-free assay), the inhibition at 0.5 µM was found to be 80.1%. At recombinant human PIM1 (cell-free assay), the inhibition at 0.5 µM was found to be 88% and the IC50 worked out at 104 nM.
Regarding `CN(C)CCNc1nc2cc(C#N)ccc2c2cscc12`, the values for the inhibition at 0.5 µM on recombinant human CK2 (cell-free assay) and at recombinant human PIM1 (cell-free assay) were 23.4% and 20%, respectively.
On to `OCCN(CCO)CCNc1nc2cc(-c3nnn[nH]3)ccc2c2sccc12`, for which the inhibition at 0.5 µM at recombinant human CK2 (cell-free assay) was determined as 50.7%. Further, at recombinant human PIM1 (cell-free assay), the inhibition at 0.5 µM worked out at 118% and the IC50 worked out at 116 nM.
Consider `COCCNc1nc2cc(C#N)ccc2c2sccc12`, for which the inhibition at 0.5 µM at recombinant human CK2 (cell-free assay) is -18%; on recombinant human PIM1 (cell-free assay), -30.6%.
As to `O=C(O)c1ccc2c(c1)nc(NC1CCCC1)c1ccncc12`, the inhibition at 0.5 µM at recombinant human CK2 (cell-free assay) is 101%. Also, at recombinant human PIM1 (cell-free assay), the inhibition at 0.5 µM is 106% and the IC50 is 565 nM.
Consider `NC(=O)c1cccc2c1nc(Nc1cccc(Cl)c1)c1ccncc12` [drawing 2002], for which the results for the inhibition at 0.5 µM on recombinant human CK2 (cell-free assay) and at recombinant human PIM1 (cell-free assay) were 36.6% and 78.9%, respectively.
On the same counts, the results for `O=c1[nH]c2ccc(OC(F)(F)F)cc2c2cnccc12` are 1.22% and 9.09%.
For `NCc1ccc2c(c1)nc(Nc1cccc(F)c1)c1ccsc12`, the inhibition at 0.5 µM on recombinant human CK2 (cell-free assay) was -8.77%; on recombinant human PIM1 (cell-free assay), -16.4%.
Turning to `N#Cc1ccc2c(c1)nc(NCC(F)(F)F)c1ccsc12`, the results for the inhibition at 0.5 µM on recombinant human CK2 (cell-free assay) and on recombinant human PIM1 (cell-free assay) were -18.4% and -32%, respectively.
Consider `FC(F)(F)CCNc1nc2cc(-c3nnn[nH]3)ccc2c2sccc12`, for which the figures for the inhibition at 0.5 µM at recombinant human CK2 (cell-free assay) and on recombinant human PIM1 (cell-free assay) were 58.4% and 92.3%, respectively.
`CN1CCCCC1CNc1nc2cc(-c3nnn[nH]3)ccc2c2ccsc12` (centres unmarked): the inhibition at 0.5 µM at recombinant human CK2 (cell-free assay) is -29.1%; at recombinant human PIM1 (cell-free assay), 14.7%.
As to `COC(C)(C)CNc1nc2cc(C#N)ccc2c2sccc12`, the inhibition at 0.5 µM is -17.1% on recombinant human CK2 (cell-free assay) and -30% at recombinant human PIM1 (cell-free assay).
As for `N#Cc1ccc2c(c1)nc(Oc1ccc3ncccc3c1)c1ccsc12`, the inhibition at 0.5 µM on recombinant human CK2 (cell-free assay) is -7.33%; on recombinant human PIM1 (cell-free assay), -22.2%.
Regarding `CN1CCCCC1CNc1nc2cc(C#N)ccc2c2ccsc12` (centres unmarked), the inhibition at 0.5 µM was found to be 5.51% at recombinant human CK2 (cell-free assay) and 59.5% on recombinant human PIM1 (cell-free assay).
On the same counts, the results for `N#Cc1ccc2c(c1)nc(Oc1ccc(F)cc1)c1ccsc12` are -3.78% and 10%.
The corresponding values for `c1ccc(COc2nc3cc(-c4nnn[nH]4)ccc3c3sccc23)cc1` are 5.71% and -6.97%.
On the same counts, the results for `Fc1cccc(Nc2nc3cc(CN(Cc4ccccc4)Cc4ccccc4)ccc3c3sccc23)c1` are -2.29% and 2.98%.
On to `CC(C)(C)OC(=O)N1CCC(Nc2nc3cc(C#N)ccc3c3ccsc23)CC1`, for which the inhibition at 0.5 µM at recombinant human CK2 (cell-free assay) was -17%; on recombinant human PIM1 (cell-free assay) it was -29.4%.
As to `CNc1ncc2c(n1)c(Nc1ccccc1)nc1cc(C(=O)OC)ccc12`, the inhibition at 0.5 µM is -12.1% on recombinant human CK2 (cell-free assay) and -9.76% at recombinant human PIM1 (cell-free assay).
Take `CCN1CCCC1CNc1nc2cc(C(=O)O)ccc2c2cnccc12` (centres unmarked): the inhibition at 0.5 µM at recombinant human CK2 (cell-free assay) was 107%. Also, on recombinant human PIM1 (cell-free assay), the inhibition at 0.5 µM amounted to 79.4% and the IC50 came to 155 nM.
`CC(=O)c1ccc(Oc2nc3cc(C#N)ccc3c3sccc23)cc1`: the inhibition at 0.5 µM is -17.9% on recombinant human CK2 (cell-free assay) and 1.38% on recombinant human PIM1 (cell-free assay).
As for `OCCNc1nc2cc(-c3nnn[nH]3)ccc2c2sccc12`, at recombinant human CK2 (cell-free assay), the inhibition at 0.5 µM amounted to 51.3%. On recombinant human PIM1 (cell-free assay), the inhibition at 0.5 µM came to 101% and the IC50 was 143 nM.
As to `N#Cc1ccc2c(c1)nc(Oc1cccc(Cl)c1)c1ccsc12`, the inhibition at 0.5 µM on recombinant human CK2 (cell-free assay) was -10.8%; on recombinant human PIM1 (cell-free assay), 10.6%.
The corresponding values for `CN(C)CCOc1nc2cc(C#N)ccc2c2sccc12` are -18% and -43.2%.
For `Cc1nn(C)c(C)c1NC(=O)NCc1ccc2c(c1)nc(Nc1cccc(F)c1)c1ccsc12`, the inhibition at 0.5 µM is -5.43% at recombinant human CK2 (cell-free assay) and 11% at recombinant human PIM1 (cell-free assay).
Regarding `O=C(O)c1ccc2c(c1)nc(NC1CCCCC1)c1ccncc12`, the inhibition at 0.5 µM on recombinant human CK2 (cell-free assay) worked out at 95.8%; at recombinant human PIM1 (cell-free assay), 64.8%.
For the compound `c1cc2c(s1)c(NC1CCNCC1)nc1cc(-c3nnn[nH]3)ccc12`, the inhibition at 0.5 µM on recombinant human CK2 (cell-free assay) turned out to be 53.7%. Moreover, on recombinant human PIM1 (cell-free assay), the inhibition at 0.5 µM is 111% and the IC50 came to 138 nM.
The corresponding values for `CCN1CCCC1CNc1nc2cc(C(=O)O)ccc2c2sccc12` (centres unmarked) are 92.8%, 93.3% and 100 nM.
The corresponding values for `CCN1CCCC1CNc1nc2cc(-c3nnn[nH]3)ccc2c2cscc12` (centres unmarked) are 72.8%, 95.9% and 79 nM.
Consider `COC(=O)c1cccc2c1nc(Nc1ccccc1)c1ccncc12` [drawing 2003], for which the values for the inhibition at 0.5 µM on recombinant human CK2 (cell-free assay) and at recombinant human PIM1 (cell-free assay) were -7.87% and 3.96%, respectively.
With `CN(C)CCNc1nc2cc(-c3nnn[nH]3)ccc2c2cscc12`, the inhibition at 0.5 µM on recombinant human CK2 (cell-free assay) was 66%; on recombinant human PIM1 (cell-free assay) it was 89.7%. For the same compound, at recombinant human PIM1 (cell-free assay), the IC50 worked out at 87 nM.
On the same counts, the results for `CN(C)CCNc1nc2cc(-c3nnn[nH]3)ccc2c2ccsc12` are 24.2%, 99.2% and 267 nM.
As to `N#Cc1ccc2c(c1)nc(Oc1ccccc1)c1ccsc12`, the inhibition at 0.5 µM at recombinant human CK2 (cell-free assay) was -54.2%; at recombinant human PIM1 (cell-free assay) it was -38.6%.
As for `COCCNc1nc2cc(-c3nnn[nH]3)ccc2c2sccc12`, the results for the inhibition at 0.5 µM on recombinant human CK2 (cell-free assay) and at recombinant human PIM1 (cell-free assay) were 47.2% and 65%, respectively.
